Compound	melting point [°C]
CC(C)(O)c1cccc2c1ccn2-c1ccnc(N[C@H]2CC[C@H](C(=O)N3CCCC3)CC2)n1 [Compound 116, (4-{4-[4-(1-hydroxy-1-methylethyl)-indol-1-yl]-pyrimidin-2-yl-amino}-cyclohexyl)-pyrrolidin-1-yl-methanone]	207.8 to 209.8
COc1cccc2c(-c3ccnc(N[C@H]4CC[C@H](O)CC4)n3)n[nH]c12 [Compound 80, 4-[4-(7-methoxy-1H-indazol-3-yl)-pyrimidin-2-ylamino]-cyclo-hexanol]	243.3 to 244.9
CC(=O)NCc1cccc2c1ccn2-c1ccnc(N[C@H]2CC[C@H](N(C)S(C)(=O)=O)CC2)n1 [Compound 205, N-(1-{2-[4-(methane-sulfonyl-methylamino)-cyclohexylamino]-pyrimidin-4-yl}-1H-indol-4-ylmethyl)-acetamide]	210.5 to 212
CS(=O)(=O)CCCOc1cccc2c1ccn2-c1ccnc(N[C@H]2CC[C@H](CO)CC2)n1 [Compound 214, (4-{4-[4-(3-methanesulfonyl-propoxy)-indol-1-yl]-pyrimidin-2-ylamino}-cyclohexyl)-methanol]	207 to 208
CC(=O)N[C@H]1CC[C@H](Nc2nccc(-n3ccc4c(COCCS(C)(=O)=O)cccc43)n2)CC1 [Compound 139, N-(4-{4-[4-(2-methane-sulfonyl-ethoxymethyl)-indol-1-yl]-pyrimidin-2-ylamino}-cyclohexyl)-acetamide]	208.5 to 209.7
CNC(=O)COc1cccc2c1cnn2-c1ccnc(N[C@H]2CC[C@H](O)CC2)n1 [Compound 112, 2-{1-[2-(4-hydroxy-cyclohexylamino)-pyrimidin-4-yl]-1H-indazol-4-yloxy}-N-methyl-acetamide]	226 to 227
COCCCOc1cccc2c1ccn2-c1ccnc(N[C@H]2CC[C@H](NS(C)(=O)=O)CC2)n1 [Compound 236, N-(4-{4-[4-(3-methoxy-propoxy)-indol-1-yl]-pyrimidin-2-ylamino}-cyclohexyl)-methanesulfonamide]	207 to 208
CC(=O)N[C@H]1CC[C@H](Nc2nccc(-n3ccc4c(C(C)(C)C#N)cccc43)n2)CC1 [Compound 176, N-(4-{4-[4-(2-cyano-prop-2-yl)-indol-1-yl]-pyrimidin-2-ylamino}-cyclohexyl)-acetamide]	238 to 239
CN([C@H]1CC[C@H](Nc2nccc(-n3ccc4c(C(C)(C)C#N)cccc43)n2)CC1)S(C)(=O)=O [Compound 173, N-(4-{4-[4-(2-cyano-prop-2-yl)-indol-1-yl]-pyrimidin-2-ylamino}-cyclohexyl)-N-methyl-methanesulfonamide]	189 to 190
COc1cccc2c1cnn2-c1ccnc(N[C@H]2CC[C@H](C(=O)N(C)C)CC2)n1 [Compound 105, 4-[4-(4-methoxyindazol-1-yl)-pyrimidin-2-ylamino]-cyclo-hexanecarboxylic acid dimethylamide]	278.8 to 280
CC(=O)N[C@H]1CC[C@H](Nc2nccc(-n3ccc4c(C(C)C#N)cccc43)n2)CC1 (stereo partly shown) [Compound 175, N-(4-{4-[4-(1-cyano-ethyl)-indol-1-yl]-pyrimidin-2-ylamino}-cyclohexyl)-acetamide]	244 to 245
CC(=O)N[C@H]1CC[C@H](Nc2ncc(Cl)c(-n3ccc4ccccc43)n2)CC1 [Compound 119, N-[4-(5-chloro-4-indol-1-ylpyrimidin-2-yl-amino)-cyclohexyl]-acetamide]	263.2 to 263.8
CS(=O)(=O)CCCOc1cccc2c1ccn2-c1ccnc(N[C@H]2CC[C@H](C(=O)N3CCC(C#N)CC3)CC2)n1 [Compound 265, 1-(4-{4-[4-(3-methane-sulfonyl-propoxy)-indol-1-yl]-pyrimidin-2-ylamino}-cyclohexane-carbonyl)-piperidine-4-carbonitrile]	150.5 to 156.5
CC1(C)OC[C@@H](COc2cccc3c2cnn3-c2ccnc(N[C@H]3CC[C@H](C(C)(C)O)CC3)n2)O1 (stereo in doubt) [Compound 132, 2-(4-{4-[4-(2,2-di-methyl[1,3]dioxolan-4-ylmethoxy)-indazol-1-yl]-pyrimidin-2-yl-amino}-cyclohexyl)-propan-2-ol]	178.5 to 180
NS(=O)(=O)CCCOc1cccc2c1cnn2-c1ccnc(N[C@H]2CC[C@H](C(=O)N3CCCC3)CC2)n1 [Compound 276]	249 to 250
CS(=O)(=O)CCOCc1cccc2c1ccn2-c1ccnc(N[C@H]2CC[C@H](O)CC2)n1 [Compound 138, 4-{4-[4-(2-methane-sulfonyl-ethoxymethyl)-indol-1-yl]-pyrimidin-2-ylamino}-cyclohexanol]	119.5 to 121
CC(C)(O)[C@H]1CC[C@H](Nc2nccc(-n3cc(C(N)=O)c4ccccc43)n2)CC1 [Compound 277, 1-{2-[4-(2-hydroxy-prop-2-yl)-cyclohexyl-amino]-pyrimidin-4-yl}-1H-indole-3-carboxylic acid amide]	222 to 223
CC(=O)N[C@H]1CC[C@H](Nc2nccc(-n3ccc4c(C(C)(C)O)cccc43)n2)CC1 [Compound 109, N-(4-{4-[4-(1-hydroxy-1-methylethyl)-indol-1-yl]-pyrimidin-2-yl-amino}-cyclohexyl)-acetamide]	172 to 173.6
CS(=O)(=O)CCCOc1cccc2c1ccn2-c1ccnc(N[C@H]2CC[C@H](C(=O)N3CCC(=O)CC3)CC2)n1	155 to 158.2

Next, values leading:

melting point [°C]	Compound
218.9 to 220.1	Nc1cccc2c1ccn2-c1ccnc(N[C@H]2CC[C@H](O)CC2)n1 [Example 8, trans-4-[4-(4-Aminoindol-1-yl)-pyrimidin-2-ylamino]-cyclohexanol]
174 to 179.3	CS(=O)(=O)CCCOc1cccc2c1ccn2-c1ccnc(N[C@H]2CC[C@H](NS(=O)(=O)CCCN3CCOCC3)CC2)n1 [Compound 280, 3-morpholin-4-yl-pro-pane-1-sulfonic acid (4-{4-[4-(3-methane-sulfonyl-propoxy)-indol-1-yl]-pyrimidin-2-yl-amino}-cyclohexyl)-amide]
246.5 to 248	Oc1ccc2c(ccn2-c2ccnc(N[C@H]3CC[C@H](O)CC3)n2)c1 [Example 9, trans-1-[2-(4-Hydroxycyclohexylamino)-pyrimidin-4-yl]-1H-indol-5-ol]
158.7 to 159.6	CSC[C@H]1CC[C@H](Nc2nccc(-n3ccc4c(OCCCS(C)(=O)=O)cccc43)n2)CC1 [Compound 298, {4-[4-(3-methane-sulfonyl-propoxy)-indol-1-yl]-pyrimidin-2-yl}-(4-methylsulfanylmethyl-cyclohexyl)-amine]
187.5 to 189.1	CNC1CCN(C(=O)[C@H]2CC[C@H](Nc3nccc(-n4ccc5c(OCCCS(C)(=O)=O)cccc54)n3)CC2)CC1 [Compound 293, (4-{4-[4-(3-methane-sulfonyl-propoxy)-indol-1-yl]-pyrimidin-2-ylamino}-cyclohexyl)-(4-methylamino-piperidin-1-yl)-methanone]
200 to 201	CS(=O)(=O)CCCOc1cccc2c1ccn2-c1ccnc(NC2CCC(F)(F)CC2)n1 [Compound 278, (4,4-difluorocyclo-hexyl)-{4-[4-(3-methane-sulfonyl-propoxy)-indol-1-yl]-pyrimidin-2-yl}-amine]
263.5 to 264.4	O=c1[nH]n(-c2ccnc(N[C@H]3CC[C@H](O)CC3)n2)c2ccccc12 [Example 16, trans-1-[2-(4-hydroxycyclohexylamino)-pyrimidin-4-yl]-1,2-dihydroindazol-3-one]
196.3 to 197.9	CS(=O)(=O)CCCOc1cccc2c1ccn2-c1ccnc(N[C@H]2CC[C@H](C(=O)N3CCC(NC4CC4)CC3)CC2)n1 [Compound 302, (4-cyclopropylamino-piperidin-1-yl)-(4-{4-[4-(3-methanesulfonyl-propoxy)-indol-1-yl]-pyrimidin-2-ylamino}-cyclohexyl)-methanone]
135.7 to 142.7	CN(C)C1CCN(C(=O)[C@H]2CC[C@H](Nc3nccc(-n4ccc5c(OCCCS(N)(=O)=O)cccc54)n3)CC2)CC1 [Compound 300, 3-(1-{2-[4-(4-dimethyl-amino-piperidine-1-carbonyl)-cyclohexyl-amino]-pyrimidin-4-yl}-1H-indol-4-yloxy)-propane-1-sulfonic acid amide]
164.1 to 172.5	CS(=O)(=O)CCCOc1cccc2c1ccn2-c1ccnc(N[C@H]2CC[C@H](N3CCCS3(=O)=O)CC2)n1 [Compound 305, [4-(1,1-dioxo-isothiazolidin-2-yl)-cyclohexyl]-{4-[4-(3-methane-sulfonyl-propoxy)-indol-1-yl]-pyrimidin-2-yl}-amine]
152 to 155	CS(=O)(=O)CCCOc1cccc2c1ccn2-c1ccnc(N[C@H]2CC[C@H](CCl)CC2)n1 [Compound 285, (4-chloromethyl-cyclo-hexyl)-{4-[4-(3-methane-sulfonyl-propoxy)-indol-1-yl]-pyrimidin-2-yl}-amine]
194.5 to 195.3	Cn1cc(-c2ccnc(N[C@H]3CC[C@H](O)CC3)n2)c2ccccc21 [Example 17, trans-4-[4-(1-Methyl-1H-indol-3-yl)-pyrimidin-2-ylamino]-cyclohexanol]
145 to 146	COC(=O)CCCOc1cccc2c1ccn2-c1ccnc(N[C@H]2CC[C@H](N(C)S(C)(=O)=O)CC2)n1 [Compound 284, 4-(1-{2-[4-(methane-sulfonyl-methylamino)-cyclohexylamino]-pyrimidin-4-yl}-1H-indol-4-yloxy)-butyric acid methyl ester]
190.1 to 200.5	CS(=O)(=O)N[C@H]1CC[C@H](Nc2nccc(-n3ccc4c(N5CCC(O)C5)cccc43)n2)CC1 (stereo partly shown) [Compound 312, N-(4-{4-[4-(3-hydroxy-pyrrolidin-1-yl)-indol-1-yl]-pyrimidin-2-yl-amino}-cyclohexyl)-methanesulfonamide]
248.5 to 252.5	CC(O)CCNC(=O)[C@H]1CC[C@H](Nc2nccc(-n3ncc4ccccc43)n2)CC1 (stereo partly drawn) [Example 5, trans-4-(4-Indazol-1-ylpyrimidin-2-ylamino)-cyclohexane-carboxylic acid (3-hydroxy-butyl)-amide]

— patent publication US8399462B2, “JNK modulators” (Roche Palo Alto LLC, priority 2006, dated 2013)
